{"source": "patent US7541371B2", "about": "“Method for treating a motor neuron disease” (Eisai R&D Management Co., Ltd., priority 2006, dated 2009)", "origin": "cited, not measured here", "target": "T1, serotonin 1A receptor (Rattus norvegicus, UniProt P19327)", "T1 construct": "mixed with the receptor fraction of the hippocampus; from tissue; host or cells: rat hippocampus", "T1 sequence (P19327 1-422)": "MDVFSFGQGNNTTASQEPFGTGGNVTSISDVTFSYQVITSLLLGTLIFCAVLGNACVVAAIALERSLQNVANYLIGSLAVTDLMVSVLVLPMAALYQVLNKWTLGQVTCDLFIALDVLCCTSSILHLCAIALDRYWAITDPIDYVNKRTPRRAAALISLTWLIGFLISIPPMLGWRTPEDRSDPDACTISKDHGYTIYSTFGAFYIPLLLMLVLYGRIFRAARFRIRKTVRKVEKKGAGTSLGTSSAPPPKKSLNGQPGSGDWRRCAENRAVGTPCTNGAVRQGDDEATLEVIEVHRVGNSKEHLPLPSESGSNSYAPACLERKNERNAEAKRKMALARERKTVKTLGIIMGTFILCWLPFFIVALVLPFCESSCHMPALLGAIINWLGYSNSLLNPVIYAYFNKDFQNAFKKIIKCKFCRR", "settings": "rat hippocampus receptor fraction, 0.5 nM [3H]8-hydroxy-dipropylaminotetralin; compounds 7 and 8, WO 99/18077; read-out: 5HT1a; cited from earlier work", "note": "pKi: −log10 of the molar value."}
{"molecule": "CCN1CCN(c2nc(-c3ccc(OCC(C)(C)O)cc3)cc3sccc23)CC1", "note": "[Compound 8, 1-{4-[4-(4-ethylpiperazin-1-yl)thieno[3,2-c]pyridin-6-yl]phenoxy}-2-methylpropan-2-ol]", "values": [{"measurement": "pKi", "result": 7.26}]}
